Among the data in patent US20210198277A1, “AMINE-SUBSTITUTED ARYL OR HETEROARYL COMPOUNDS” (Epizyme, Inc., priority 2016, published 2021) are IC50 values, retold here.

The target in one assay is T1, human EHMT2 913-1193 (Homo sapiens, UniProt Q96KQ7).
T1 construct: recombinant purified human EHMT2 913-1193, Viva; purchased Viva
T1 sequence (Q96KQ7 913-1193): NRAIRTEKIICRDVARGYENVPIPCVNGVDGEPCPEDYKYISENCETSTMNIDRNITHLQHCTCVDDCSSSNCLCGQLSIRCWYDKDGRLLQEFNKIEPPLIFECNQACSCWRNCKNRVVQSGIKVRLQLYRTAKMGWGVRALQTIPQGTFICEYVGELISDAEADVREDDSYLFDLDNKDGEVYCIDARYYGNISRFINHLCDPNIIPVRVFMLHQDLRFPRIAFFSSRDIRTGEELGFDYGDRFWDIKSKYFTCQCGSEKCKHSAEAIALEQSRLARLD
Description: EHMT2 enzyme assay on histone peptide substrate (EHMT2 PEP). The conditions noted are these: Table III; read-out: EHMT2 PEP (IC50 μM). The format is biochemical. The method, boiled down: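 10-pt 3-fold series, 50 μM top final, 2% DMSO; 30 min preinc w/ 0.031 nM enzyme; pH 7.5 Bicine/TCEP buffer; ^3H-SAM + biotin-histone peptide, 60 min RT; SAM quench; streptavidin Flashplate capture, TopCount.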

In the next assay the target is T2, EHMT1 (Homo sapiens, UniProt Q9H9B1).
T2 sequence (Q9H9B1 1-1298): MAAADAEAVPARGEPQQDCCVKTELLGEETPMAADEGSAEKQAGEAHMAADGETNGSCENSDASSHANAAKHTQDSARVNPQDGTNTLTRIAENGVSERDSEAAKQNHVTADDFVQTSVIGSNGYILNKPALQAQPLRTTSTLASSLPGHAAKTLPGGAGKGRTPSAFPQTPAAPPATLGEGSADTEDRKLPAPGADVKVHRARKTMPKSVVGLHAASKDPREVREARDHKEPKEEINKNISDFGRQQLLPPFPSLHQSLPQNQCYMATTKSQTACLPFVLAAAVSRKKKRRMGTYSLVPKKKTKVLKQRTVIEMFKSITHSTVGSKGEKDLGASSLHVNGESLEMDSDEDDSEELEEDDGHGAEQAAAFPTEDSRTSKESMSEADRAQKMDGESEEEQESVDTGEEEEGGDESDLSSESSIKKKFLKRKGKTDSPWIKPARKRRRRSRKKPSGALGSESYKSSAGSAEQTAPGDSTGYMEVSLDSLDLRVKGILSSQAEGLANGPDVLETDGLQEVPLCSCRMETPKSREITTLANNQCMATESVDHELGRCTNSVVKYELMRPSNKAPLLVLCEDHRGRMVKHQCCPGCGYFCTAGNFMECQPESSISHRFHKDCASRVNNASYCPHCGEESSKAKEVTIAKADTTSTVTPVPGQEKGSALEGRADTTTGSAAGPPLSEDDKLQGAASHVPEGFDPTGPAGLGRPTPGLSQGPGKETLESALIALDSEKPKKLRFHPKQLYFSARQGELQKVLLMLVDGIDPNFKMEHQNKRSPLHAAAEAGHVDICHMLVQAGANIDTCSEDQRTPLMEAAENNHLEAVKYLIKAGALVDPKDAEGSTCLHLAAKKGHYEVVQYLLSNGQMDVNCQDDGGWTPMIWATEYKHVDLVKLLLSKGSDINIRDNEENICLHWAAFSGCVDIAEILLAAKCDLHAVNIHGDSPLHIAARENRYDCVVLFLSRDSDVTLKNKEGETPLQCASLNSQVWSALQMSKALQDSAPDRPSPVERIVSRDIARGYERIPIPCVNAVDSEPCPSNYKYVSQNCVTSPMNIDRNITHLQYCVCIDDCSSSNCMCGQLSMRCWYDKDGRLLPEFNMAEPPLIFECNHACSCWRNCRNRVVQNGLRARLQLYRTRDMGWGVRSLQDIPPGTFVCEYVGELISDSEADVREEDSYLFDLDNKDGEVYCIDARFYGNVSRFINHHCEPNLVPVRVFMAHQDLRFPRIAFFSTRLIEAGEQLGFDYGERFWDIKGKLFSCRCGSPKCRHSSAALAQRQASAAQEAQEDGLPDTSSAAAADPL
Description: EHMT1 enzyme assay on peptide substrate (EHMT1 PEP). The format is biochemical. The note with it: Table III; read-out: EHMT1 PEP (IC50 μM).

Consider `CNc1nc(C)cc(Nc2cc(OCCCN3CCCC3)c(OC)cn2)n1` [Compound 306, N^4-(5-methoxy-4-(3-(pyrrolidin-1-yl)propoxy)pyridin-2-yl)-N^2,6-dimethylpyrimidine-2,4-diamine], for which the IC50 is 1 to 10 µM at human EHMT2 913-1193 and over 10 µM at EHMT1.
`CNc1nc(C2CCN(C)CC2)c2cc(OC)c(OCCCN3CCCC3)cc2n1` [Compound 270]: the IC50 on human EHMT2 913-1193 and at EHMT1 was under 0.1 µM in each case.
Regarding `CNc1cc(C)nc(Nc2ccc(OC)c(O[C@H]3C[C@@H](N(C)C)C3)c2)n1` (single isomer, unassigned) [Compound 317, N^2-(3-((1s,3s)-3-(dimethylamino)cyclobutoxy)-4-methoxyphenyl)-N^4,6-dimethylpyrimidine-2,4-diamine], the IC50 is 1 to 10 µM on human EHMT2 913-1193 and over 10 µM on EHMT1.
Turning to `COc1ccc(Nc2cc(C)nc(O)n2)cc1OCCCN1CCCC1` [Compound 448, 4-((4-methoxy-3-(3-(pyrrolidin-1-yl)propoxy)phenyl)amino)-6-methylpyrimidin-2-ol], the 50% inhibitory concentration (IC50) at human EHMT2 913-1193 and at EHMT1 was over 10 µM in each case.
As for `COc1ccc(Nc2nccc(NCC3CC(C)(C)NC(C)(C)C3)n2)cc1OCCCN1CCCC1` [Compound 278], the IC50 on human EHMT2 913-1193 and on EHMT1 was under 0.1 µM each time.
With `CNc1ccnc(Nc2ccc(OC)c(OCCCN3CC[C@H](F)C3)c2)n1` [Compound 271], the concentration for half-maximal inhibition (IC50) at human EHMT2 913-1193 lay in the range of 1 to 10 µM; on EHMT1, 0.1 to 1 µM.
For `CNc1ccnc(Nc2cccc(N3CC(N)CC3=O)c2)n1` (stereo not drawn) [Compound 296] the same measures were over 10 µM and over 10 µM.
Taken in the same sequence, the figures for `CNc1ccnc(Nc2ccc(OC)c(OCCCN3CC(OC)C3)c2)n1` [Compound 425, N^2-(4-methoxy-3-(3-(3-methoxyazetidin-1-yl)propoxy)phenyl)-N^4-methylpyrimidine-2,4-diamine] were 0.1 to 1 µM and 0.1 to 1 µM.
`COc1ccc(Nc2nc(C)cc(O)n2)cc1OCCCN1CCCC1` [Compound 447, 2-((4-methoxy-3-(3-(pyrrolidin-1-yl)propoxy)phenyl)amino)-6-methylpyrimidin-4-ol]: the IC50 on human EHMT2 913-1193 and at EHMT1 was over 10 µM in each case.
Consider `CNc1ccnc(Nc2ccc(OC)c(OCCCN3CCC(S(C)(=O)=O)C3)c2)n1` (stereo not drawn) [Compound 282], for which the IC50 at human EHMT2 913-1193 and at EHMT1 was over 10 µM throughout.
`CNc1ccnc(Nc2ccc(OC)c(OCCCN3CC(C)C3)c2)n1` [Compound 423, N^2-(4-methoxy-3-(3-(3-methylazetidin-1-yl)propoxy)phenyl)-N^4-methylpyrimidine-2,4-diamine]: the IC50 at human EHMT2 913-1193 and on EHMT1 was 0.1 to 1 µM each time.
Regarding `CNc1ccnc(Nc2ccc(OC)c(OCCCN3CCC(C#N)C3)c2)n1` (stereo not drawn) [Compound 287, 1-(3-(2-methoxy-5-((4-(methylamino)pyrimidin-2-yl)amino)phenoxy)propyl)pyrrolidine-3-carbonitrile], the IC50 at human EHMT2 913-1193 and on EHMT1 was over 10 µM in each case.
For `CNc1ccnc(Nc2cccc(OCC(F)CN3CCCC3)c2)n1` (stereo not drawn) [Compound 276, N^2-(3-(2-fluoro-3-(pyrrolidin-1-yl)propoxy)phenyl)-N^4-methylpyrimidine-2,4-diamine], the IC50 at human EHMT2 913-1193 was over 10 µM; at EHMT1, 1 to 10 µM.
Taken in the same sequence, the figures for `CNc1cc(C2CC2)nc(Nc2ccc(OC)c(OCCCN3CCCC3)c2)n1` [Compound 320, 6-cyclopropyl-N^2-(4-methoxy-3-(3-(pyrrolidin-1-yl)propoxy)phenyl)-N^4-methylpyrimidine-2,4-diamine] were under 0.1 µM and under 0.1 µM.
For `CNc1cc(CC(F)(F)F)nc(Nc2ccc(OC)c(OCCCN3CCCC3)c2)n1` [Compound 428, N^2-(4-methoxy-3-(3-(pyrrolidin-1-yl)propoxy)phenyl)-N^4-methyl-6-(2,2,2-trifluoroethyl)pyrimidine-2,4-diamine] the same measures were 1 to 10 µM and 1 to 10 µM.
`COc1cnc(Nc2nc(C)cc3[nH]ccc23)cc1OCCCN1CCCC1` [Compound 310]: the IC50 on human EHMT2 913-1193 and at EHMT1 was 0.1 to 1 µM each time.
As for `CNc1cc(Nc2ccc(OC)c(OCCCN3CCCC3)c2)ncc1F` [Compound 272, 5-fluoro-N^2-(4-methoxy-3-(3-(pyrrolidin-1-yl)propoxy)phenyl)-N^4-methylpyridine-2,4-diamine], the IC50 lay within 0.1 to 1 µM at human EHMT2 913-1193 and 1 to 10 µM at EHMT1.
As for `CNc1ccnc(Nc2ccc(OC)c(OCc3cn(C4CC4)nn3)c2)n1` [Compound 434, N^2-(3-((1-cyclopropyl-1H-1,2,3-triazol-4-yl)methoxy)-4-methoxyphenyl)-N^4-methylpyrimidine-2,4-diamine], the IC50 at human EHMT2 913-1193 and at EHMT1 was over 10 µM throughout.
As to `CNc1cc(C)nc(Nc2ccc(OC)c(OCC3CN(CC4CC4)C3)c2)n1` [Compound 445, N^2-(3-((1-(cyclopropylmethyl)azetidin-3-yl)methoxy)-4-methoxyphenyl)-N^4,6-dimethylpyrimidine-2,4-diamine], the IC50 on human EHMT2 913-1193 and at EHMT1 was 0.1 to 1 µM each time.
Take `CNc1cc(C)nc(Nc2ccc(OC)c(OCCCOC)c2)n1` [Compound 312, N^2-(4-methoxy-3-(3-methoxypropoxy)phenyl)-N^4,6-dimethylpyrimidine-2,4-diamine]: the IC50 at human EHMT2 913-1193 and on EHMT1 was over 10 µM in each case.
With `CNc1cc(C)nc(Nc2ccc(OC)c(OC[C@H]3C[C@@H](N(C)C)C3)c2)n1` [Compound 316], the values for the IC50 at human EHMT2 913-1193 and on EHMT1 were 1 to 10 µM and 0.1 to 1 µM, respectively.
Turning to `CNc1cc(C)nc(Nc2cc(F)c(OC)c(OCCCN3CCCC3)c2)n1` [Compound 301, N2-(3-fluoro-4-methoxy-5-(3-(pyrrolidin-1-yl)propoxy)phenyl)-N4,6-dimethylpyrimidine-2,4-diamine], the IC50 on human EHMT2 913-1193 and on EHMT1 was over 10 µM in each case.
For `CNc1cc(C)nc(Nc2ccc(OC)c(OCCOC)c2)n1` [Compound 311, N^2-(4-methoxy-3-(2-methoxyethoxy)phenyl)-N^4,6-dimethylpyrimidine-2,4-diamine], the IC50 at human EHMT2 913-1193 and at EHMT1 was over 10 µM throughout.
As for `CNc1cc(C)nc(Nc2cc(OCCCN3CCCC3)c(OC)cc2F)n1` [Compound 302, N^2-(2-fluoro-4-methoxy-5-(3-(pyrrolidin-1-yl)propoxy)phenyl)-N^4,6-dimethylpyrimidine-2,4-diamine], the IC50 on human EHMT2 913-1193 and on EHMT1 was 1 to 10 µM each time.
On to `CNc1ccnc(Nc2ccc(OC)c(OCCCN3CCC3C)c2)n1` (stereo not drawn) [Compound 429, N^2-(4-methoxy-3-(3-(2-methylazetidin-1-yl)propoxy)phenyl)-N^4-methylpyrimidine-2,4-diamine], for which the IC50 at human EHMT2 913-1193 and on EHMT1 was 0.1 to 1 µM each time.
`CNc1cc(C)nc(Nc2ccc(OC)c(OCC3CN(C)C3)c2)n1` [Compound 442, N^2-(4-methoxy-3-((1-methylazetidin-3-yl)methoxy)phenyl)-N^4,6-dimethylpyrimidine-2,4-diamine]: the IC50 at human EHMT2 913-1193 and on EHMT1 was under 0.1 µM each time.
In the case of `CNc1ccnc(Nc2ccc(OC)c(OC[C@H](O)CN3CCCC3)c2)n1` [Compound 299, (R)-1-(2-methoxy-5-((4-(methylamino)pyrimidin-2-yl)amino)phenoxy)-3-(pyrrolidin-1-yl)propan-2-ol], the IC50 on human EHMT2 913-1193 and on EHMT1 was under 0.1 µM each time.

The IC50 is the concentration that gives 50% inhibition.
